Measurements: patent US12472168B2, “Ring-fused thiazolino 2-pyridones, methods for preparation thereof and their use in the treatment and/or prevention of a disease involving gram-positive bacteria” (Quretech Bio AB, priority 2017, dated 2025)
In brackets after ≈: the same amount, converted by molar mass.

Tests used:
[1] = tested on: MRSA; assay: Minimum Inhibitory Concentration (MIC) and Minimum Bactericidal Concentration (MBC) assays; format: cell-based, Methicillin-resistant Staphylococcus aureus; conditions: Staphylococcus aureus, compound alone, no antibiotic; for MIC: 18 h, overnight (18 hrs), read-out: MIC
Description: (§1) MIC was defined by the lowest concentration of the test compound that inhibits visible growth of pathogen of interest. The optical density of the pathogen of interest culture was measured by OD600.
(§2) MBC was determined colony forming units (CFUs) enumeration by serially diluting and plating bacterial cultures on BHI plates.
(§3) Thus, no antibiotic was used in Table 2.

[2] = tested on: E. faecalis; assay: MIC and MBC assays; format: cell-based; conditions: Enterococcus faecalis, compound alone, no antibiotic; for MIC: overnight (18 hrs)
Description: as §1, §2, §3

[3] = tested on: Streptococcus; assay: MIC and MBC assays; format: cell-based; conditions: compound alone, no antibiotic
Description: as §1, §2, §3

[4] = tested on: MRSA; assay: Effect of combination with Oxacillin on MRSA, CFU counts; format: cell-based, Methicillin-resistant Staphylococcus aureus; conditions: 37° C. 18 h
Description: (§4) The mixture (200 μL) was incubated at 37° C. for 18 h. A control without the test compound was performed in the same way.

[5] = tested on: MRSA; assay: Effect of compound alone on MRSA, CFU counts; format: cell-based, Methicillin-resistant Staphylococcus aureus; conditions: compound 25 μM alone, 37° C. 18 h
Description: as §4

[6] = tested on: vancomycin resistant E. faecalis V583; assay: Combination with Vancomycin in vivo, mouse model of CAUTI, V583 (vancomycin resistant); parameters: species or system Enterococcus faecalis; conditions: C57BL/6Ncr mice
Description: (§5) Mice used in this study were six-week-old female wild-type C57BL/6Ncr mice. Mice were anesthetized by inhalation of isoflurane and implanted with a 5-mm length of platinum-cured silicone catheter. Then, mice were infected immediately following catheter implantation with 50 μl of ˜2×10^7 CFU of E. faecalis OG1RF (FIG. 10A and FIG. 10B) or V583 (FIG. 11A and FIG. 11B) in PBS (1 mL) was introduced in the bladder lumen by transurethral inoculation. […] Mice were sacrificed at 48 hours post-infection by cervical dislocation after anaesthesia inhalation, and the bladders were aseptically harvested. Subsequently, the silicone implant was retrieved from the bladder. Catheters were placed in 1×PBS (1 mL), sonicated for 10 min, to detach E. faecalis and bladders were homogenized in 1×PBS (1 mL). For bacterial enumeration on catheters and bladder, samples were serially diluted and plated on BHI for CFU enumeration.

[7] = tested on: E. faecalis OG1RF; assay: Combination with Vancomycin in vivo, mouse model of CAUTI, OG1RF (vancomycin sensitive); parameters: species or system Enterococcus faecalis; conditions: C57BL/6Ncr mice
Description: as §5

[8] = tested on: E. faecalis OG1RF; assay: Stand alone activity in vivo, mouse model of catheter-associated urinary tract infection (CAUTI); parameters: species or system Enterococcus faecalis; conditions: C57BL/6Ncr mice; 10 mg/kg intraperitoneally 24 hours post-infection; sacrificed 48 hours post-infection; compound alone
Description: as §5, with “OG1RF” for “OG1RF (FIG. 10A and FIG. 10B) or V583 (FIG. 11A and FIG. 11B)”, “mL).” for “mL). For bacterial enumeration on catheters and bladder, samples were serially diluted and plated on BHI for CFU enumeration.”
Mice used in this study were six-week-old female wild-type C57BL/6Ncr mice. Mice were anesthetized by inhalation of isoflurane and implanted with a 5-mm length of platinum-cured silicone catheter.
Mice were sacrificed at 48 hours post-infection by cervical dislocation after anaesthesia inhalation, and the bladders were aseptically harvested. Subsequently, the silicone implant was retrieved from the bladder. Catheters were placed in 1×PBS (1 mL), sonicated for 10 min, to detach E. faecalis and bladders were homogenized in 1×PBS (1 mL). For bacterial enumeration on catheters and bladder, samples were serially diluted and plated on BHI for CFU enumeration.

[9] = tested on: E. faecalis OG1RF; assay: Combination with Gentamicin in vivo, mouse model of CAUTI, OG1RF; parameters: species or system Enterococcus faecalis; conditions: C57BL/6Ncr mice
Description: as §5, with “catheter.” for “catheter. Then, mice were infected immediately following catheter implantation with 50 μl of ˜2×10^7 CFU of E. faecalis OG1RF (FIG. 10A and FIG. 10B) or V583 (FIG. 11A and FIG. 11B) in PBS (1 mL) was introduced in the bladder lumen by transurethral inoculation.”

[10] = tested on: Vancomycin Resistant Enterococcus (VRE) strain V583; assay: Effect of combination of Example 11 and Vancomycin on VRE (V583), CFU counts; format: cell-based; conditions: for avg. CFU: VRE V583 OD 0.001, 18 h
Description: The mixture (200 μL) was incubated at 37° C. for 18 h Controls were performed without bacteria-vehicle (DMSO), Vancomycin vehicle (water) and BHI controls that use those as treatment to the inoculum, to ensure no previous bacterial contamination in the reagents. Bacterial CFU were counted as standard methods using serial dilution plated on BHI plates to determine the effect of each treatment.

[11] = tested on: E. faecalis OG1RF; assay: Effect of combination of Gentamicin and Example 11 on E. faecalis OG1RF in vitro (FIG. 7); format: cell-based, Enterococcus faecalis; conditions: agent alone
[12] = MRSA OD 0.1, compound 25 μM in combination with Oxacillin 9 μM
[13] = MRSA OD 1, compound 25 μM in combination with Oxacillin 9 μM
[14] = 3 mg/kg intraperitoneally 24 hours post-infection, agent alone
[15] = combination of Vancomycin and Example 49, 3 mg/kg intraperitoneally
[16] = 2 mg/kg intraperitoneally 24 hours post-infection, agent alone
[17] = combination of Gentamicin and Example 49, 2 mg/kg intraperitoneally

## CCCCCOc1ccc(-c2sc3c(OC)c(Cc4cccc5ccccc45)cc(=O)n3c2C(=O)O)cc1C [Example 8, 5-Methoxy-4-[(1-naphthyl)methyl]-2-oxo-8-[4-(pentyloxy)-3-methyl-phenyl]-7-thia-1-azabicyclo[4.3.0]nona-3,5,8-triene-9-carboxylic acid]
[1]
  MIC: 12 µM (≈ 6.5 µg/mL)
  MBC: 13 µM (≈ 7.04 µg/mL)
[2]
  MBC: 12.5 µM (≈ 6.77 µg/mL)
  MIC: 25 µM (≈ 13.5 µg/mL)
[3]
  MBC: 7 µM (≈ 3.79 µg/mL)
[4]; [12]
  CFUs/ml: 1.7E+04 CFUs/ml
[4]; [13]
  CFUs/ml: 1E+06 CFUs/ml
[5]; MRSA OD 0.001
  CFUs/ml: 4.0E+05 CFUs/ml
[5]; MRSA OD 0.1
  CFUs/ml: 6.0E+06 CFUs/ml
[5]; MRSA OD 1
  CFUs/ml: 6.0E+07 CFUs/ml

## CCCCOc1ccc(-c2sc3c(OC)c(Cc4cccc5ccccc45)cc(=O)n3c2C(=O)O)cc1C [Example 9, 8-(4-Butoxy-3-methyl-phenyl)-5-methoxy-4-[(1-naphthyl)methyl]-2-oxo-7-thia-1-azabicyclo[4.3.0]nona-3,5,8-triene-9-carboxylic acid]
[1]
  MIC: 17 µM (≈ 8.97 µg/mL)
  MBC: 37 µM (≈ 19.5 µg/mL)
[2]
  MBC: 12.5 µM (≈ 6.6 µg/mL)
  MIC: 39 µM (≈ 20.6 µg/mL)
[3]
  MBC: 8 µM (≈ 4.22 µg/mL)
[4]; [12]
  CFUs/ml: 2.6E+04 CFUs/ml
[4]; [13]
  CFUs/ml: 3E+06 CFUs/ml
[5]; MRSA OD 0.001
  CFUs/ml: 8.0E+04 CFUs/ml
[5]; MRSA OD 0.1
  CFUs/ml: 4.4E+06 CFUs/ml
[5]; MRSA OD 1
  CFUs/ml: 5.0E+07 CFUs/ml

## CCCCCOc1ccc(-c2sc3c(OC)c(Cc4c5ccccc5cc5ccccc45)cc(=O)n3c2C(=O)O)cc1C [Example 49, 7-(anthracen-9-ylmethyl)-8-methoxy-2-(3-methyl-4-(pentyloxy)phenyl)-5-oxo-thiazolo[3,2-a]pyridine-3-carboxylic acid]
[6]; [14]
  reduction of bacterial titers in the bladder: about 0.5 log units
  reduction of bacterial titers on the catheter: no effect
[6]; [15]
  reduction of bacterial titers in the bladder: about 2 log units
  reduction of bacterial titers on the catheter: about 1 log unit
[7]; [14]
  reduction of bacterial titers in the bladders: about 1 log unit
  reduction of bacterial titers on the catheters: about 1 log unit
[7]; [15]
  reduction of bacterial titers in the bladder: about 2 log units
  reduction of bacterial titers on the catheters: about 2 log units
[8]
  reduction of bacterial titers in the bladder: about 1.5 log units
  reduction of bacterial titers on the catheters: about 1.5 log units
[9]; [16]
  reduction of bacterial titers in the bladders: about 0.2 log units
  reduction of bacterial titers on catheters: ~0.5 log units
[9]; [17]
  reduction of bacterial titers in the bladder: about 2 log units
  reduction of bacterial titers on catheters: about 1.5 log units

## Cc1onc(-c2ccccc2)c1C(=O)N[C@@H]1C(=O)N2[C@@H]1SC(C)(C)[C@@H]2C(=O)O [Oxacillin, oxacillin, reference compound]
[4]; MRSA OD 0.001, Oxacillin 9 μM and DMSO (no test compound)
  CFUs/ml: 600 CFUs/ml
[4]; MRSA OD 0.1, Oxacillin 9 μM and DMSO (no test compound)
  CFUs/ml: 1.6E+10 CFUs/ml
[4]; MRSA OD 1, Oxacillin 9 μM and DMSO (no test compound)
  CFUs/ml: 2.2E+09 CFUs/ml

## CN[C@H](CC(C)C)C(=O)N[C@H]1C(=O)N[C@@H](CC(N)=O)C(=O)N[C@H]2C(=O)N[C@H]3C(=O)N[C@H](C(=O)N[C@H](C(=O)O)c4cc(O)cc(O)c4-c4cc3ccc4O)[C@H](O)c3ccc(c(Cl)c3)Oc3cc2cc(c3O[C@@H]2O[C@H](CO)[C@@H](O)[C@H](O)[C@H]2O[C@H]2C[C@](C)(N)[C@H](O)[C@H](C)O2)Oc2ccc(cc2Cl)[C@H]1O [Vancomycin, vancomycin]
[6]; [14]
  reduction of bacterial titers in the bladder: 0.3 log units
  reduction of bacterial titers on the catheter: no effect
[7]; [14]
  reduction of bacterial titers in the bladders: did not result in reduction
  reduction of bacterial titers on the catheters: did not result in reduction
[10]; Experiment 1, Vancomycin 1 μg/ml alone (Control)
  avg. CFU: 1.20E+09 CFU
[10]; Experiment 1, Vancomycin 2 μg/ml alone (Control)
  avg. CFU: 1.35E+09 CFU
[10]; Experiment 1, Vancomycin 4 μg/ml alone (Control)
  avg. CFU: 5.00E+08 CFU
[10]; Experiment 1, Vancomycin 8 μg/ml alone (Control)
  avg. CFU: 4.00E+08 CFU
[10]; Experiment 1, Vancomycin 16 μg/ml alone (Control)
  avg. CFU: 3.00E+08 CFU
[10]; Experiment 1, Vancomycin 32 μg/ml alone (Control)
  avg. CFU: 5.50E+08 CFU
[10]; Experiment 1, Vancomycin 64 μg/ml alone (Control)
  avg. CFU: 4.00E+07 CFU
[10]; Experiment 2, Vancomycin 1 μg/ml alone (Control)
  avg. CFU: 1.70E+09 CFU
[10]; Experiment 2, Vancomycin 2 μg/ml alone (Control)
  avg. CFU: 1.40E+09 CFU
[10]; Experiment 2, Vancomycin 4 μg/ml alone (Control)
  avg. CFU: 8.50E+08 CFU
[10]; Experiment 2, Vancomycin 8 μg/ml alone (Control)
  avg. CFU: 8.50E+08 CFU
[10]; Experiment 2, Vancomycin 16 μg/ml alone (Control)
  avg. CFU: 4.50E+08 CFU
[10]; Experiment 2, Vancomycin 32 μg/ml alone (Control)
  avg. CFU: 1.95E+06 CFU
[10]; Experiment 2, Vancomycin 64 μg/ml alone (Control)
  avg. CFU: 6.00E+04 CFU
[10]; Vancomycin alone at a concentration below 64 μg/ml, VRE V583
  effect on the bacterial growth: no or no substantial effect

## gentamicin [reference compound]
[9]; [16]
  reduction of bacterial titers in the bladders: did not result in reduction
  reduction of bacterial titers on catheters: did not result in reduction
[11]
  number of observed bacterial CFUs/ml: did not result in a decrease
